Values of other authors as cited in patent US9597338B2, “Shell-and-core dosage form approaching zero-order drug release” (Depomed, Inc., priority 2000, dated 2017).

Conditions: oral; doses administered with or following a meal

Area under the plasma concentration-time curve with or following a meal: two to three times greater | Peak plasma concentration with or following a meal: two to three times greater
Structure (SMILES): Cc1c(O)cccc1C(=O)N[C@@H](CSc1ccccc1)[C@H](O)CN1C[C@H]2CCCC[C@H]2C[C@H]1C(=O)NC(C)(C)C [nelfinavir]
